Measurements published in patent US20230125487A1, “COMPOSITION FOR TREATING OR PREVENTING INFLAMMATORY BOWEL DISEASE” (FUGENBIO CO., LTD., priority 2019, published 2023).

What was measured:
MCP1 = MCP1 mRNA expression in LPS-stimulated RAW 264.7 macrophages; assay type: cell-based; conditions: 0.1 μg/mL E. coli-derived LPS, 25 μM compound, FIG. 6
IL-1α = IL-1α mRNA expression in LPS-stimulated RAW 264.7 macrophages; assay type: cell-based; conditions: 0.1 μg/mL E. coli-derived LPS, 25 μM compound, FIG. 4
IL-1β = IL-1β mRNA expression in LPS-stimulated RAW 264.7 macrophages; assay type: cell-based; conditions: 0.1 μg/mL E. coli-derived LPS, 25 μM compound, FIG. 5
TNFα = TNFα mRNA expression in LPS-stimulated RAW 264.7 macrophages (RT-PCR); assay type: cell-based; conditions: 0.1 μg/mL E. coli-derived LPS, 25 μM compound, FIGS. 1a to 1c
Description: (§1) RAW 264.7 macrophages were treated with 0.1 μg/mL of E. coli-derived LPS and 25 μM of Compounds A1 to A6, B1 to B6, or C1 to C6, respectively. Then, the mRNA expression level of the inflammatory cytokine TNFα was observed through RT-PCR.

[1] = test system: free radicals and NO formation; conditions: disclosed in Cheng et al., Biochemical Pharmacology, 2001, Vol. 61, 939-946; cited from earlier work
iNOS = iNOS mRNA expression in LPS-stimulated RAW 264.7 macrophages; assay type: cell-based; conditions: 0.1 μg/mL E. coli-derived LPS, 25 μM compound, FIGS. 3a and 3b
Description: as §1
(§2) FIGS. 2a and 2b show the result of representing the mRNA expression level of COX2. FIGS. 3a and 3b show the result of representing the mRNA expression level of iNOS.

nitric oxide (NO) = assay: NO level in LPS-stimulated RAW 264.7 macrophages; assay type: cell-based; conditions: 0.1 μg/mL E. coli-derived LPS, 25 μM compound, FIGS. 7a and 7b
Description: as §1
Nitric oxide (NO), which is increased by LPS stimulation in RAW 264.7 macrophages, is one of the causes of inflammatory bowel disease along with inflammatory cytokines. Therefore, in Experimental Example 3, it was confirmed in the same manner as in Experimental Example 1 whether NO produced by LPS stimulation could be reduced by the compound according to the present invention.
FIGS. 7a and 7b show the results of observing NO concentration (μM).

COX2 = COX2 mRNA expression in LPS-stimulated RAW 264.7 macrophages; assay type: cell-based; conditions: 0.1 μg/mL E. coli-derived LPS, 25 μM compound, FIGS. 2a and 2b
Description: as §1, §2

SMILES: CC(C)=CCc1cc(C(=O)/C=C/c2ccc(O)c(O)c2)c(O)cc1O [Compound A1, broussochalcone A]
- mRNA expression level of MCP1 (MCP1): suppressed
- mRNA expression level of IL-1α (IL-1α): suppressed
- mRNA expression level of IL-1β (IL-1β): suppressed
- increase in the mRNA expression level of TNFα induced by LPS stimulation (TNFα): suppressed
- excessive free radicals and NO formation [1]: inhibits
- mRNA expression level of iNOS (iNOS): suppressed
- NO level increased by LPS stimulation (nitric oxide (NO)): suppressed
- mRNA expression level of COX2 (COX2): suppressed
